Measurements: ChEMBL document CHEMBL1641487, “Aspergilones A and B, two benzylazaphilones with an unprecedented carbon skeleton from the gorgonian-derived fungus Aspergillus sp” (Bioorg Med Chem Lett, 2011)
Converted amounts (≈) assume the structure as drawn.

Assays:
[1] = tested on: HL-60; assay: Cytotoxicity against human HL60 cells; type: functional, cell-based
[2] = tested on: MCF7; assay: Cytotoxicity against human MCF7 cells; type: functional, cell-based
[3] = tested on: Amphibalanus amphitrite; assay: Antifouling activity against Balanus amphitrite assessed as larval settlement barnacle; type: functional, organism-based
[4] = tested on: A549; assay: Cytotoxicity against human A549 cells; type: functional, cell-based

SMILES: CC1=C2C(=CO[C@@H](C)[C@@H]2C)C(=O)C(Cc2ccccc2)(Cc2ccccc2)C1=O [ASPERGILONE A]
- IC50 [1]: 3.2 µg/mL (≈ 8.28 µM)
- IC50 [2]: 25 µg/mL (≈ 64.7 µM)
- EC50 [3]: 25 µg/mL (≈ 64.7 µM)
- IC50 [4]: 37 µg/mL (≈ 95.7 µM)

SMILES: CC1=C2C(=CO[C@@H](C)[C@@H]2C)C(=O)[C@@](Cc2ccccc2)(C[C@]2(Cc3ccccc3)C(=O)C3=CO[C@@H](C)[C@H](C)C3=C(C)C2=O)C1=O [ASPERGILONE B]
- IC50 [1]: > 50 µg/mL
- IC50 [2]: > 50 µg/mL
- IC50 [4]: > 50 µg/mL
